Reference: patent US20220280526A1, “AGENT FOR THE TREATMENT OF PSORIASIS” (EBERHARD KARLS UNIVERSITAET TUEBINGEN MEDIZINISCHE FAKULTAET, priority 2019, published 2022)

Key:
NFKBIZ (IκBζ) promoter = assay: Luciferase assay of NFKBIZ promoter activity in HaCaT cells; assay type: cell-based; conditions: IL-36α-stimulated HaCaT cells, 24 h
Description: Luciferase constructs were generated as described; Muller et al. (2018; loc. Cit.). 1*10^4 HEK293T cells were transfected for 24 h using HBS buffer and CaCl2 and a mixture of 400 ng luciferase vector and 100 ng TK-Renilla vector. For expression of other factors, the following concentrations were used: 70 ng p65, 200 ng cJUN, STAT3 or EZH2 constructs and 500 ng CDK4, CDK6 or cyclin D expression constructs (not shown). For transfection of HaCaT cells, 3*10^5 cells were transfected for 4 h using Lipofectamine 3000 and a mixture of 800 ng luciferase vector, 200 ng TK-Renilla vector and 4 μg expression or control plasmids according to the manufacturer's instructions (Thermo Fisher). 36 h after transfection, luciferase activity was measured with the Dual Luciferase Reporter Assay Kit (Promega). Expression of the reporter constructs was calculated as the fold induction over unstimulated transfected cells from data of three independent experiments.

EZH2 = EZH2 phosphorylation in keratinocytes (immunoblot); assay type: cell-based, human; conditions: IL-36α- or IL-17A/TNFα-treated keratinocytes
Description: HaCaT cells were maintained in DMEM with 10% FCS and antibiotics. Human primary keratinocytes were freshly isolated from foreskin and maintained in CnT-07S medium with gentamycin (CELLnTEC). Recombinant human IL-36α (aa 6-158) and mouse IL-36α (aa 6-160) were purchased from R&D Systems. Recombinant IL-17A (11340174), TNFα (11343013) and IL-1β (11340013) were ordered from Immunotools. Flagellin (vac-fla) and poly I:C (vac-pic) were purchased from Invivogen. In cell culture experiments, the cytokines were used at the following concentrations, as described previously: IL-36α (100 ng/mL), IL-17A (200 ng/mL), TNFα (10 ng/mL) and IL-1β (100 ng/mL). Flagellin was applied at 10 ng/mL and poly(I:C) was added at a final concentration of 100 ng/mL. […] When indicated, cells were starved for 2 h prior to cytokine treatment, by removing cell culture supplements from the growth medium.
Western blot analysis was performed as described before. […]

[1] = tested on: STAT3, EZH2, CDK4 and CDK6 binding to the NFKBIZ promoter region; assay: Chromatin immunoprecipitation at the NFKBIZ promoter in IL-36α-stimulated HaCaT cells; assay type: cell-based; conditions: 30 min IL-36α
[2] = tested on: IL-36-mediated psoriasis-like dermatitis; assay: IL-36α-triggered psoriasis-like dermatitis mouse model, topical treatment of ears; assay type: in vivo, C57BL/6 mice
Description: Experiments were conducted in accordance with the German law guidelines of animal care. […] At day 7, mice were sacrificed and analysed. For IL-36α-mediated psoriasis induction, ears of male C57BL/6 mice (8-12 weeks old) were treated by intradermal injections using 1 μg murine IL-36α (aa 8-160, R&D) or PBS control for 5 consecutive days. […] Inhibitors were topically applicated 6 h before intradermal injections of IL-36α or PBS were applied. Mice were sacrificed and analysed at day 6. Ear sections from mice were fixed in 10% formalin (Carl Roth) and subsequently embedded in paraffin. 5-μm sections were prepared and incubated with the following antibodies from Cell Signaling: pSTAT3 (9145), pRB (8516) and H3K27me3 (9733). For staining of human skin samples, EZH2 antibody (Cell Signaling, 5246) was used. Antigen retrieval was performed in 1 mM EDTA pH 8.0 for pSTAT3, and 10 mM citrate buffer pH 6.0+0.5% Triton X-100 for EZH2, H3K27me3 and pRB. After incubation with peroxidase-coupled secondary antibodies, sections were stained with DAB substrate.

Substance: Abemaciclib mesylate
- expression of luciferase construct harboring the NFKBIZ (IκBζ) promoter (NFKBIZ (IκBζ) promoter): abrogated
- inducible phosphorylation of EZH2 at threonine 345 (T345) (EZH2): completely abrogated
- recruitment of STAT3/EZH2/CDK4/6 multi-protein complex to the NFKBIZ promoter region [1]: abrogated
- IL-36-mediated expression of IκBζ, phosphorylation of EZH2 at T345 and activation of STAT3 (pSTAT3 Y705) in skin ([2]; immunoblot of ear skin at day 6): suppressed
- keratinocyte hyperproliferation and immune cell infiltration ([2]; intradermal IL-36α 5 days, topical inhibitor, abemaciclib 0.02 mg, CPI-169 0.05 mg, day 6): effectively blocked
- IκBζ target gene expression and key cytokine expression (Il17a, Il23a) ([2]; qPCR of skin samples): effectively blocked
